Measured values taken from patent US5189171A, “Antipsychotic benzodioxan derivatives” (American Home Products Corporation, priority 1992, dated 1993).
“And” between values parts separate entries of the source, which are not always exact repeats. Identical values can stand only once. Each block holds one compound with its values, some of them ahead of it.

Columns and labels:
[1] = system: dopamine synthesis (dopa accumulation; dopamine autoreceptor); experiment: Inhibition of dopa accumulation in GBL-treated rats (method of Walters and Roth); format: in vivo, rat (male, Sprague-Dawley); conditions: rat; for Dopa Accumulation (% inhib. @ 10 mg/kg, sc), limbic (L): limbic (L) brain tissue; for Dopa Accumulation (% inhib. @ 10 mg/kg, sc), striatal (S): striatal (S) brain tissue; for Dopa Accumulation (% inhib. @ 10 mg/kg, sc), tissue not indicated: (L)/(S) mark not given
Procedure: The effect of the compounds of the invention on the synthesis of dopamine was established by the method of Walters and Roth, Naunyn-Schmiedeberg's Arch. Pharmacol. 296:5-14, 1976, in which rats (male, Sprague-Dawley, Charles River, 200-350 g) were administered vehicle or test drug ten minutes prior to the administration of gamma butyrolactone (GBL; 750 mg/kg, ip to inhibit dopaminergic impulse flow) and 20 minutes prior to NSD-1015 (100 mg/kg, ip to prevent the conversion of dopa to dopamine). Thirty minutes after NSD-1015 all rats were humanely euthenized and the nucleus accumbens and the straitum were removed for analysis. Following perchloric acid extraction of the tissue, the extracts were placed over alumina columns to collect and concentrate dopa and other catechols. This eluate was then subjected to HPLC analysis using electrochemical detection to quantify the levels of dopa present. Dopamine autoreceptor agonists, under the conditions used above, inhibit dopa accumulation.

mouse locomotor activity = experiment: Reduction of mouse locomotor activity (hypolocomotion; Martin and Bendensky); format: in vivo, mouse (male, CF-1); conditions: horizontal activity counts 10 to 20 minutes after dosing; for ED50: Mus musculus, ip, 20 min
Procedure: The antipsychotic activity of the compounds of the invention was further established by a determination of the compounds' ability to reduce mouse locomotor activity according to the method of Martin and Bendensky, J. Pharmacol. Exp. Therap. 229: 706-711, 1984, in which mice (male, CF-1, Charles River, 20-30 g) were injected with vehicle or various doses of each drug and locomotor activity was measured for 30 minutes using automated infrared activity monitors (Omnitech-8×8 inch open field) located in a darkened room. ED50's were calculated from the horizontal activity counts collected from 10 to 20 minutes after dosing using a nonlinear regression analysis with inverse prediction.

[2] = target: T1, serotonin 5-HT1A receptor (Rattus norvegicus, UniProt P19327); experiment: Affinity for the serotonin 5-HT1A receptor, displacement of [3H]8-OHDPAT (Hall et al.); format: binding; conditions: [3H]8-OHDPAT displacement; for IC50: read-out: Receptor Affinities 5-HT1A (IC50 (nM)); for inhibition at 0.1 µM: read-out: Receptor Affinities 5-HT1A (% @ ( ) μM)
T1 construct: following the procedure of Hall et al., J. Neurochem; 44, 1685 (1985); from tissue
T1 sequence (P19327 1-422): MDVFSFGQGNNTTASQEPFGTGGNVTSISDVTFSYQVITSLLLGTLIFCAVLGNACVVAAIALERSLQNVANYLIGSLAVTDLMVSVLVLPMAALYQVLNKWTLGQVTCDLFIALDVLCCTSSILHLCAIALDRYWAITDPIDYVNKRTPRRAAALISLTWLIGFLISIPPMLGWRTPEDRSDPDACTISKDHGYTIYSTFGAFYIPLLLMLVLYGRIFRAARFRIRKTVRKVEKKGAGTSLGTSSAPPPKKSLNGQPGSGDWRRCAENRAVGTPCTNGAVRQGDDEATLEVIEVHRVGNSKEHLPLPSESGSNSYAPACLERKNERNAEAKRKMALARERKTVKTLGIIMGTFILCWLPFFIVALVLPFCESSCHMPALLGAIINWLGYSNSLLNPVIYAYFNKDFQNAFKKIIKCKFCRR
Excerpt: Affinity for the serotonin 5-HT1A receptor was established by testing the claimed compound's ability to displace [^3 H]8-OHDPAT (dipropylaminotetralin) from the 5-HT1A serotonin receptor following the procedure of Hall et al., J. Neurochem. 44, 1685 (1985). […] The anxiolytic activity of buspirone is believed to be, at least partially, due to its 5-HT1A receptor affinity (Vander Maclen et al., Eur. J. Pharmacol. 1986, 129 (1-2) 133-[…]).

dopamine D2 receptor = target: T2, dopamine D2 receptor (Rattus norvegicus, UniProt P61169); experiment: Affinity for the dopamine D2 receptor, 3H-spiroperidol binding in homogenized limbic brain tissue; conditions: for IC50: read-out: Receptor Affinities D2 (IC50 (nM)); for inhibition at 1 µM: read-out: Receptor Affinities D2 (% @ ( ) μM)
T2 construct: from tissue; host or cells: homogenized limbic brain tissue
Procedure: Affinity for the dopamine D2 receptor was established by the standard experimental test procedure of Fields, et al., Brain Res., 136, 578 (1977) and Yamamura et al., eds., Neurotransmitter Receptor Binding, Raven Press, New York (1978) wherein homogenized limbic brain tissue is incubated with ^3 H-spiroperidol and various concentrations of test compound, filtered and washed and shaken with Hydrofluor scintillation cocktail (National Diagnostics) and counted in a Packard 460 CD scintillation counter.

5-HT1A receptor = conditions: cited from earlier work

T2 sequence (P61169 whole entry): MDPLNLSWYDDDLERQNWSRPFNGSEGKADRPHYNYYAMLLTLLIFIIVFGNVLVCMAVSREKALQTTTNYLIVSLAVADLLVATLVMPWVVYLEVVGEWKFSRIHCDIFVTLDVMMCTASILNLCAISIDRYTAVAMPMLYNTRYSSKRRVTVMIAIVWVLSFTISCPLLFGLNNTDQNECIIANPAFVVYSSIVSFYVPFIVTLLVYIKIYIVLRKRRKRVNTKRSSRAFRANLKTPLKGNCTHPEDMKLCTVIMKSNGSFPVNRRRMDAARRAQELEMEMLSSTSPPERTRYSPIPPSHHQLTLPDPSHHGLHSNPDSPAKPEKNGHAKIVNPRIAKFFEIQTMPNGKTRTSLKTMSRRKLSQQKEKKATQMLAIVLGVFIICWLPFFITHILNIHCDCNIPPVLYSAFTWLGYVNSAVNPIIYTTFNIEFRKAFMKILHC

IC50 [2]: 104 nM
Compound: O=c1ccc2ccc(OCCCNC[C@H]3COc4cc(O)ccc4O3)cc2o1 [Example 8, (S)-7-[3-[[(2,3-Dihydro-6-hydroxy-1,4-benzodioxin-2-yl)methyl]amino]propoxy]-2H-1-benzopyran-2-one]
Dopa Accumulation (% inhib. @ 10 mg/kg, sc), limbic (L) [1]: 50%
ED50 (mouse locomotor activity): 3.5 mg/kg

Compound: COc1cc(OC)c2c(c1)OCC(CNCCCOc1ccc3ccc(=O)oc3c1)O2 (stereo not drawn) [Example 19]
Dopa Accumulation (% inhib. @ 10 mg/kg, sc), limbic (L) [1]: 23%

IC50 (dopamine D2 receptor): 112 nM
IC50 [2]: 0.5 nM
Compound: O=c1ccc2ccc(OCCCNCC3COc4ccccc4O3)cc2o1 (stereo not drawn) [Example 1, 7-[3-[[(2,3-Dihydro-1,4-benzodioxin-2-yl)methyl]amino]propoxy]-2H-1-benzopyran-2-one]
Dopa Accumulation (% inhib. @ 10 mg/kg, sc), limbic (L) [1]: 39%
Dopa Accumulation (% inhib. @ 10 mg/kg, sc), striatal (S) [1]: 1%
ED50 (mouse locomotor activity): 0.58 mg/kg

inhibition at 0.1 µM [2]: 23%
Compound: CN(CCCOc1ccc2ccc(=O)oc2c1)CC1COc2cc(O)ccc2O1 (stereo not drawn) [Example 15, 7-[3-[[(2,3-Dihydro-6-hydroxy-1,4-benzodioxin-2-yl)methyl]methylamino]propoxy]-2H-1-benzopyran-2-one]
Dopa Accumulation (% inhib. @ 10 mg/kg, sc), tissue not indicated [1]: 9.2%

Compound: O=C1CC2(CCCC2)CC(=O)N1CCCCN1CCN(c2ncccn2)CC1 [buspirone]
affinity for the 5-HT1A serotonin receptor subtype (in words) (5-HT1A receptor; standard for anxiolytic activity): potent affinity

Compound: O=c1ccc2ccc(OCCCNC[C@@H]3COc4cc(O)ccc4O3)cc2o1 [Example 10, (R)-7-[3-[[(2,3-Dihydro-6-hydroxy-1,4-benzodioxin-2-yl)methyl]amino]propoxy]-2H-1-benzopyran-2-one]
Dopa Accumulation (% inhib. @ 10 mg/kg, sc), tissue not indicated [1]: 24.0%

Compound: CC(=O)Oc1ccc2c(c1)OCC(CNCCCOc1ccc3ccc(=O)oc3c1)O2 (stereo not drawn) [Example 11, 7-[3-[[(2,3-Dihydro-6-acetoxy-1,4-benzodioxin-2-yl)methyl]amino]propoxy]-2H-1-benzopyran-2-one]
Dopa Accumulation (% inhib. @ 10 mg/kg, sc), limbic (L) [1]: 37.7%
inhibition at 0.1 µM [2]: 78%

inhibition at 0.1 µM [2]: 81%
Compound: CCN(CCCOc1ccc2ccc(=O)oc2c1)CC1COc2ccc(O)cc2O1 (stereo not drawn) [Example 12, 7-[3-[[(2,3-Dihydro-7-hydroxy-1,4-benzodioxin-2-yl)methyl]ethylamino]propoxy]-2H-1-benzopyran-2-one]
Dopa Accumulation (% inhib. @ 10 mg/kg, sc), limbic (L) [1]: 61.6%
ED50 (mouse locomotor activity): 1.6 mg/kg

Compound: O=C1CC2(CCCC2)CC(=O)N1CCCCNCC1COc2ccccc2O1 (stereo not drawn) [MDL 72832, 8-[4-(1,4-benzodioxan-2-ylmethylamino)butyl]-8-azaspiro[4.5]decane-7,9-dione]
selectivity as ligand for 5-HT1A receptors (in words) (5-HT1A receptor; Fozard et al. 1987): selective and stereospecific

Compound: COc1ccc2c(c1)OC(CN(C)CCCOc1ccc3ccc(=O)oc3c1)CO2 (stereo not drawn) [Example 14]
Dopa Accumulation (% inhib. @ 10 mg/kg, sc), tissue not indicated [1]: 19.5%

inhibition at 1 µM (dopamine D2 receptor): 100%
IC50 [2]: 6 nM
Compound: O=c1ccc2ccc(OCCCNCC3COc4ccc(O)cc4O3)cc2o1 (stereo not drawn) [Example 6, 7-[3-[[(2,3-Dihydro-7-hydroxy-1,4-benzodioxin-2-yl)methyl]amino]propoxy]-2H-1-benzopyran-2-one]
Dopa Accumulation (% inhib. @ 10 mg/kg, sc), limbic (L) [1]: 76%
Dopa Accumulation (% inhib. @ 10 mg/kg, sc), striatal (S) [1]: 73%
ED50 (mouse locomotor activity): 0.19 mg/kg

Compound: O=c1ccc2c(OCCCNCC3COc4ccccc4O3)cccc2[nH]1 (stereo not drawn) [Example 7, 5-[3-[[(2,3-Dihydro-1,4-benzodioxin-2-yl)methyl]amino]propoxy]-2(1H)-quinolinone]
Dopa Accumulation (% inhib. @ 10 mg/kg, sc), limbic (L) [1]: 1.5%
Dopa Accumulation (% inhib. @ 10 mg/kg, sc), striatal (S) [1]: 51.3%

IC50 (dopamine D2 receptor): 337 nM and 730 nM
IC50 [2]: 112 nM
Compound: O=c1ccc2ccc(OCCCNCC3COc4cc(O)ccc4O3)cc2o1 (stereo not drawn) [Example 5, 7-[3-[[(2,3-Dihydro-6-hydroxy-1,4-benzodioxin-2-yl)methyl]amino]propoxy]-2H-1-benzopyran-2-one]
Dopa Accumulation (% inhib. @ 10 mg/kg, sc), limbic (L) [1]: 60%
Dopa Accumulation (% inhib. @ 10 mg/kg, sc), striatal (S) [1]: 18%
ED50 (mouse locomotor activity): 1.62 mg/kg
Hypolocomotion (ED50 mg/kg, ip) (mouse locomotor activity): 2.04 mg/kg

Compound: COc1cccc2c1OCC(CNCCCOc1ccc3ccc(=O)oc3c1)O2 (stereo not drawn) [Example 2, 7-[3-[[(2,3-Dihydro-5-methoxy-1,4-benzodioxin-2-yl)methyl]amino]propoxy]-2H-1-benzopyran-2-one]
Dopa Accumulation (% inhib. @ 10 mg/kg, sc), limbic (L) [1]: -12%

inhibition at 1 µM (dopamine D2 receptor): 66%
Compound: COc1ccc2c(c1)OC(CNCCCOc1ccc3ccc(=O)oc3c1)CO2 (stereo not drawn) [Example 9, 7-[3-[[(2,3-Dihydro-7-methoxy-1,4-benzodioxin-2-yl)methyl]amino]propoxy]-2H-1-benzopyran-2-one]
Dopa Accumulation (% inhib. @ 10 mg/kg, sc), limbic (L) [1]: 21.7%

Compound: O=c1ccc2ccc(OCCCNCC3COc4cc(OCc5ccccc5)ccc4O3)cc2o1 (stereo not drawn) [Example 4, 7-[3-[[(2,3-Dihydro-6-phenylmethoxy-1,4-benzodioxin-2-yl)methyl]amino]propoxy]-2H-1-benzopyran-2-one]
Dopa Accumulation (% inhib. @ 10 mg/kg, sc), limbic (L) [1]: 20%

Compound: O=c1ccc2ccc(OCCCNC[C@H]3COc4ccc(O)cc4O3)cc2o1 [Example 20, (S)-7-[3-[[(2,3-Dihydro-7-hydroxy-1,4-benzodioxin-2-yl)methyl]amino]propoxy]-2H-1-benzopyran-2-one]
Dopa Accumulation (% inhib. @ 10 mg/kg, sc), limbic (L) [1]: 45%

Compound: O=C1CC2(CCCC2)CC(=O)N1CCCCNCC1COc2ccccc2O1 (single isomer, unassigned; (-)) [(-)-MDL 72832]
binding at the 5-HT1A receptor site relative to the dextrorotary isomer (5-HT1A receptor; (-)-isomer vs dextrorotary isomer, Fozard et al. 1987): 32 times
